Experimental data as given in patent US5061711A, “Method of curing liver diseases by using pyrrolo quinoline quinone triesters and novel pyrrolo quinoline quinone triesters” (Mitsubishi Gas Chemical Company, Inc., priority 1989, dated 1991).

Legend:
mice [1] = assay: Kidney toxicity determined by blood examination; format: in vivo, mouse; conditions: for Creatinine in serum / Urea nitrogen in serum / Glucose in serum: average of eight mice; for Creatinine in serum: None: 0.4; for Urea nitrogen in serum: None: 20; for Glucose in serum: None: 78
Protocol: (3) Kidney toxicity determined by blood examination:
(§1) After lapse of one day from the administration, the mice were fasted (only water was given) and then after 18 hours, blood was collected and serum was obtained therefrom. Glucose, urea nitrogen and creatinine in the serum were examined by clinical examination reagent (trademark: FUJI DRYCHEMSLIDE manufactured by Fuji Photo Film Co., Ltd.). The results are shown by average value of eight mice in Table 3.

mice [2] = assay: Kidney toxicity (2) determined by blood examination; format: in vivo, mouse; conditions: average of eight mice; for Creatinine in serum: None: 0.8; for Urea nitrogen in serum: None: 23; for Glucose in serum: None: 93
Protocol: (4) Kidney toxicity (2) determined by blood examination:
The dosage per kg of body weight of mouse was 150, 400 mg and 100 mg.
as §1, with “then,” for “then”, “15” for “18”, “(trademark :” for “(trademark:”, “4.” for “3.”

Compound: C=CCOC(=O)c1cc(C(=O)OCC=C)c2c(n1)C(=O)C(=O)c1cc(C(=O)OCC=C)[nH]c1-2 [PQQ triallyl ester]
- Creatinine in serum (mice [1]; i.p. 40 mg/kg): 0.3 mg/dL
- Urea nitrogen in serum (mice [1]; i.p. 40 mg/kg): 12 mg/dL
- Glucose in serum (mice [1]; i.p. 40 mg/kg): 42 mg/dL
- Creatinine in serum (mice [1]; i.p. 80 mg/kg): 0.2 mg/dL
- Urea nitrogen in serum (mice [1]; i.p. 80 mg/kg): 12 mg/dL
- Glucose in serum (mice [1]; i.p. 80 mg/kg): 47 mg/dL
- Creatinine in serum (mice [1]; i.p. 160 mg/kg): 0.2 mg/dL
- Urea nitrogen in serum (mice [1]; i.p. 160 mg/kg): 10 mg/dL
- Glucose in serum (mice [1]; i.p. 160 mg/kg): 59 mg/dL
- Creatinine in serum (mice [1]; i.p. 200 mg/kg): 0.1 mg/dL
- Urea nitrogen in serum (mice [1]; i.p. 200 mg/kg): 9 mg/dL
- Glucose in serum (mice [1]; i.p. 200 mg/kg): 64 mg/dL
- creatinine in serum (in words) (mice [1]; i.p., versus no compound): nearly the same
- glucose in serum (in words) (mice [1]; i.p., versus no compound): nearly the same
- urea nitrogen in serum (in words) (mice [1]; i.p., versus no compound): nearly the same
- kidney toxicity (in words) (mice [1]; mouse, in vivo, ip): no kidney toxicity was observed

Compound: COC(=O)c1cc(C(=O)OC)c2c(n1)C(=O)C(=O)c1cc(C(=O)OC)[nH]c1-2 [PQQ trimethyl ester]
- Creatinine in serum (mice [2]; 150 mg/kg): 0.9 mg/dL
- Urea nitrogen in serum (mice [2]; 150 mg/kg): 22 mg/dL
- Glucose in serum (mice [2]; 150 mg/kg): 72 mg/dL
- Creatinine in serum (mice [2]; 400 mg/kg): 0.7 mg/dL
- Urea nitrogen in serum (mice [2]; 400 mg/kg): 20 mg/dL
- Glucose in serum (mice [2]; 400 mg/kg): 55 mg/dL
- Creatinine in serum (mice [2]; 1000 mg/kg): 0.7 mg/dL
- Urea nitrogen in serum (mice [2]; 1000 mg/kg): 17 mg/dL
- Glucose in serum (mice [2]; 1000 mg/kg): 60 mg/dL
